Data reported in ChEMBL document CHEMBL1201862, “PubChem BioAssay data set” (2004).
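How tested: cells in 96-well plates exposed to compound for 48 hours at five concentrations. Here, GI50 denotes the concentration required for 50% inhibition of growth.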 The source made the active and inactive calls. Rule as the data show it: active = GI50 up to about 1.1 µM and inactive = higher.

Experiments:
Experiment in all cases: inhibition of tumour cell growth, NCI panel, 48 h
[1] = tested on: LXFL 529
[2] = tested on: SNB-78
[3] = tested on: HOP-18
[4] = tested on: DMS-114
[5] = tested on: DMS-273
[6] = tested on: RXF 631
[7] = tested on: KM-20L2
[8] = tested on: M19-MEL
[9] = tested on: XF498

Row | Structure (SMILES) | GI50 [1] | GI50 [2] | GI50 [3] | GI50 [4] | GI50 [5] | GI50 [6] | GI50 [7] | GI50 [8] | GI50 [9]
1 | NC(=O)OCC(COc1ccc(Cl)cc1)OC(=O)c1ccccc1Cl (stereo unspecified) | 24.1 µM (inactive) | 36.1 µM (inactive) | 26.1 µM (inactive) | 14.6 µM (inactive) | 20.5 µM (inactive) | 20.3 µM (inactive) | 19.3 µM (inactive) |  | 
2 | Cc1c(C(=O)CC(=O)C(=O)Nc2c(C(C)C)cccc2C(C)C)[n+]([O-])c2ccccc2[n+]1[O-] | 11.1 µM (inactive) | 12.4 µM (inactive) |  | 2.59 µM (inactive) | 3.4 µM (inactive) | 3.3 µM (inactive) | 4.55 µM (inactive) | 1.99 µM (inactive) | 3.05 µM (inactive)
3 | O=C1c2ccccc2CC1C1(O)C(=O)Nc2ccccc21 (stereo unspecified) | > 100 µM (inactive) | > 100 µM (inactive) |  | > 100 µM (inactive) | > 100 µM (inactive) | > 100 µM (inactive) | > 100 µM (inactive) | > 100 µM (inactive) | 55.6 µM (inactive)
4 | C/C(=N\N)C(CN1CCOCC1)C(c1ccccc1)c1c(O)c2ccccc2oc1=O (stereo unspecified) | > 100 µM (inactive) | > 100 µM (inactive) |  | > 100 µM (inactive) | > 100 µM (inactive) |  | > 100 µM (inactive) | > 100 µM (inactive) | 
5 | CC(C)(C)[C@H]1CC[C@@](O)(c2ccccc2)CC1.CC(C)(C)[C@H]1CC[C@](O)(c2ccccc2)CC1 | 21.1 µM (inactive) | 21.8 µM (inactive) | 37.8 µM (inactive) | 21.1 µM (inactive) | 15.3 µM (inactive) |  | 16.1 µM (inactive) | 19.4 µM (inactive) | < 0.01 µM (active)
6 | Cc1nc(-n2nc(-c3ccccc3)cc2-c2ccccc2)sc1C(=O)/C=C/c1ccc([N+](=O)[O-])cc1 |  | 61.9 µM (inactive) | > 100 µM (inactive) |  | 20.8 µM (inactive) | 23 µM (inactive) | 33.7 µM (inactive) | 20.3 µM (inactive) | 
7 | Cc1ccc2oc(=O)cc(CC(=O)O)c2c1 | > 100 µM (inactive) |  | > 100 µM (inactive) |  | > 100 µM (inactive) | > 100 µM (inactive) | > 100 µM (inactive) | > 100 µM (inactive) | 24.5 µM (inactive)
8 | C1=Cc2nc1c(-c1ccccc1)c1ccc([n-]1)c(-c1ccccc1)c1nc(c(-c3ccccc3)c3ccc([n-]3)c2-c2ccccc2)C=C1.[Zn+2] | > 100 µM (inactive) | > 100 µM (inactive) |  | > 100 µM (inactive) |  | > 100 µM (inactive) | > 100 µM (inactive) | > 100 µM (inactive) | > 100 µM (inactive)
9 | CC(C(=O)c1ccc(Cl)cc1)C1OC(=O)C(Cl)=C1Cl (stereo unspecified) | 19.8 µM (inactive) |  | 50.4 µM (inactive) | 26.2 µM (inactive) |  | > 100 µM (inactive) | 86.1 µM (inactive) | 23 µM (inactive) | 20.5 µM (inactive)
10 | C/C(=N\NS(=O)(=O)c1c(C)cc(C)cc1C)c1ccc[n+]([O-])n1 | 11.3 µM (inactive) | 14.3 µM (inactive) | 19.2 µM (inactive) | 17.3 µM (inactive) | 16.2 µM (inactive) | 27.5 µM (inactive) | 22.9 µM (inactive) | 13.9 µM (inactive) | 
11 | O=C(O)CCC1c2[nH]c3ccccc3c2CCN1Cc1ccccc1 (stereo unspecified) | > 100 µM (inactive) | > 100 µM (inactive) | > 100 µM (inactive) | > 100 µM (inactive) | > 100 µM (inactive) | > 100 µM (inactive) | > 100 µM (inactive) | > 100 µM (inactive) | 
12 | CC(C)(C)C1CCN(C(=O)c2ccccc2)CC1 | 70 µM (inactive) | > 100 µM (inactive) | 84.1 µM (inactive) | 28.8 µM (inactive) | > 100 µM (inactive) |  | > 100 µM (inactive) | > 100 µM (inactive) | < 0.01 µM (active)
13 | COc1ccc(/N=N/c2c(-c3ccccc3)nn(C(=O)CC(=O)Nc3ccc(OC)cc3)c2-c2ccccc2)cc1 | 60.5 µM (inactive) | 34.6 µM (inactive) | 84.3 µM (inactive) | 60 µM (inactive) | > 100 µM (inactive) | 59.3 µM (inactive) |  | > 100 µM (inactive) | 27 µM (inactive)
14 | O=c1[nH]c2cc([N+](=O)[O-])ccc2nc1/C(=N\NO)C(O)c1ccc([N+](=O)[O-])cc1 (stereo unspecified) | > 100 µM (inactive) | > 100 µM (inactive) |  | 32.6 µM (inactive) | > 100 µM (inactive) | > 100 µM (inactive) | 32.2 µM (inactive) | > 100 µM (inactive) | > 100 µM (inactive)
15 | O=C1Nc2cc(F)ccc2C1=O | > 100 µM (inactive) | > 100 µM (inactive) | > 100 µM (inactive) | 50.8 µM (inactive) | > 100 µM (inactive) |  | > 100 µM (inactive) | > 100 µM (inactive) | > 100 µM (inactive)
16 | CC(C)(C)NNc1c([N+](=O)[O-])cnn(-c2ccccc2)c1=O | 1.78 µM (inactive) | 15.6 µM (inactive) | 16.7 µM (inactive) |  | 3.2 µM (inactive) |  | 6.44 µM (inactive) | 2.47 µM (inactive) | 2.55 µM (inactive)
17 | CCC(CC)n1cc(C(=O)NC(=O)NCCCCCOC(=O)CCCCCCCCCCC(=O)OCCCCCNC(=O)NC(=O)c2cn(C(CC)CC)c(=O)[nH]c2=O)c(=O)[nH]c1=O | 62.8 µM (inactive) | > 100 µM (inactive) | > 100 µM (inactive) | > 100 µM (inactive) | > 100 µM (inactive) | > 100 µM (inactive) | > 100 µM (inactive) | > 100 µM (inactive) | > 100 µM (inactive)
18 | [O-][S+]1Nc2c(Cl)cc(Cl)c(Cl)c2S1 (stereo unspecified) | > 100 µM (inactive) | > 100 µM (inactive) | > 100 µM (inactive) | 76.2 µM (inactive) | > 100 µM (inactive) |  | > 100 µM (inactive) | > 100 µM (inactive) | 
19 | COc1ccc2oc(C(=O)O)c3c2c1CCC3 | > 100 µM (inactive) | > 100 µM (inactive) | > 100 µM (inactive) | > 100 µM (inactive) | > 100 µM (inactive) |  | > 100 µM (inactive) | > 100 µM (inactive) | > 100 µM (inactive)
20 | COc1cc(/C=C2\Cc3ccccc3C2=O)cc(OC)c1OC | > 100 µM (inactive) | > 100 µM (inactive) | > 100 µM (inactive) | > 100 µM (inactive) | > 100 µM (inactive) | > 100 µM (inactive) | > 100 µM (inactive) | > 100 µM (inactive) | > 100 µM (inactive)
21 | C/C=C/C=C\C(=O)C1c2cccc(O)c2C(=O)c2c(O)cc(C)cc21 (stereo unspecified) |  | 1.65 µM (inactive) | 1.88 µM (inactive) | 0.383 µM (active) | 1.65 µM (inactive) |  | 1.98 µM (inactive) | 0.828 µM (active) | 0.232 µM (active)
22 | O=C(O)CCSC(=O)Nc1ccccc1F | > 100 µM (inactive) | > 100 µM (inactive) |  | > 100 µM (inactive) | > 100 µM (inactive) |  | > 100 µM (inactive) |  | 
23 | CC(Nc1ccc(S(=O)(=O)NC(=N)N)cc1)c1c2ccccc2nc2ccccc12 (stereo unspecified) | 28.8 µM (inactive) |  |  | 31.7 µM (inactive) | 28.3 µM (inactive) | 26 µM (inactive) | 31.8 µM (inactive) | 34.4 µM (inactive) | 15.8 µM (inactive)
24 | CC12CCC3(OCCO3)C(OC(=O)c3ccccc3)=C1CCC21OCCO1 (stereo unspecified) | > 100 µM (inactive) | > 100 µM (inactive) | > 100 µM (inactive) | > 100 µM (inactive) | > 100 µM (inactive) | > 100 µM (inactive) | > 100 µM (inactive) | > 100 µM (inactive) | 
25 | CC12OC3(C)OC(=O)C(c4ccccc4)(O1)C3(C)O2 (stereo unspecified) | > 100 µM (inactive) | > 100 µM (inactive) | > 100 µM (inactive) | > 100 µM (inactive) | > 100 µM (inactive) | > 100 µM (inactive) | > 100 µM (inactive) | > 100 µM (inactive) | 
26 | O=P(NC12CC3CC(CC(C3)C1)C2)(N1CC1)N1CC1 | 64.4 µM (inactive) | > 100 µM (inactive) | > 100 µM (inactive) | 50.9 µM (inactive) | 6.07 µM (inactive) |  | > 100 µM (inactive) | > 100 µM (inactive) | 
27 | CCCCCCCCC1C(C)c2c([nH]c3ccccc23)C2C(=O)N(c3ccccc3)C(=O)C21 (stereo unspecified) | 16.5 µM (inactive) | 9.62 µM (inactive) |  | 10.6 µM (inactive) | 9.75 µM (inactive) | 3.41 µM (inactive) | 11.2 µM (inactive) | 15.7 µM (inactive) | 
